Source: article PMC10449848, “Structural basis of lipid-droplet localization of 17-beta-hydroxysteroid dehydrogenase 13” (Nature Communications, 2023)
Values joined by “and” are separate entries in the source; they are usually repeats but may differ in a detail not shown here. Equal values may be shown once.

Columns and labels:
human HSD17B13 [1] = target: T1, human HSD17B13 (Homo sapiens, UniProt Q7Z5P4); experiment: Cell assay: HEK cells stably expressing wild-type human HSD17B13, estrone production by LCMS; type: cell-based
T1 construct: expressed in transfected cells
T1 sequence (Q7Z5P4 20-300): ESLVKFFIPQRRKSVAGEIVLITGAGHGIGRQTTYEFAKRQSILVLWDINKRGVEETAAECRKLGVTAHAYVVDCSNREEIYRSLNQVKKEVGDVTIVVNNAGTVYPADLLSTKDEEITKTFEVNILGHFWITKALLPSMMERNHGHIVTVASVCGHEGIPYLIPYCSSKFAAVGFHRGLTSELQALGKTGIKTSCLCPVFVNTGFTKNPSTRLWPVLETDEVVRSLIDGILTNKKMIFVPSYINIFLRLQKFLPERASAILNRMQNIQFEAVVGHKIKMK
Procedure: Cell inhibition potency of test compounds was determined using a whole-cell HEK overexpressing HSD17B13, utilizing a liquid chromatography/mass spectrometry (LCMS) readout.
In this assay HSD17B13 uses NAD^+ as a cofactor during metabolism of β-estradiol, converting NAD^+ to NADH and β-estradiol to estrone. Estrone production is quantified by LCMS using a Sciex API-5500-Electrospray system (AB Sciex LLC, MA, USA), and used as a measure of HSD17B13 enzyme activity.
The amount of product (estrone) was then quantified by LCMS using software provided (Analyst 1.7, Hotfix 3, MultiQuant 3.0.31721.0). Data expressed as product area ratio (PAR) were then normalized to control wells using Activity Base (IDBS). Zero percent effect (ZPE) was defined as PAR generated from uninhibited HSD17B13 (vehicle control).

human HSD17B13 [2] = target: T2, human HSD17B13 (Homo sapiens, UniProt Q7Z5P4); experiment: Co-factor (NAD+ / NADP) dependency biochemical assay, NAD(P)H-Glo readout, uninhibited vs inhibited reactions; conditions: 30 μM 1, 20 nM protein
T2 construct: human HSD17B13 (residues 2-300, NP_835236.2); 10x His (N); TEV protease site (N); made in house; host or cells: Sf9 (baculovirus)
T2 sequence (Q7Z5P4 2-300): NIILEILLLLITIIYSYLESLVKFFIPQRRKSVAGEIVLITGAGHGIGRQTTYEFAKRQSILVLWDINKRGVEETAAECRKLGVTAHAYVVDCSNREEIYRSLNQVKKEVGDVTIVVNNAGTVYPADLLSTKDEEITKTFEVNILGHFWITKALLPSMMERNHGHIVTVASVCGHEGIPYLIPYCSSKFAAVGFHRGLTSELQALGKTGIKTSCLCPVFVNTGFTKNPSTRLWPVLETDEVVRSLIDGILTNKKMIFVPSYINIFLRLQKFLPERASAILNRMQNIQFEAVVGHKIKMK
Procedure: Dependency of co-factor (NAD^+ and NADP^+) was determined using a purified protein HSD17B13 biochemical enzyme activity assay, using NAD(P)H-Glo luciferase readout (Promega). Substrates β-estradiol (Sigma, E8875) and Leukotriene B4 (LTB4, Cayman), 15 μM FAC in assay buffer (25 mM Tris-HCl (Sigma T2444) and 0.02% Triton X-100, pH 7.6), and 500 µM FAC co-factor (NAD^+ or NADP, Sigma, N8285) in assay buffer were added (2.5 µL/well each) to 384-well assay plates (Corning 3824) containing 2.5 μL of either 30 μM FAC inhibitor in 1% DMSO/assay buffer or vehicle (1% DMSO/assay buffer), in triplicate. The reaction was initiated by the addition of 2.5 µL/well-purified HSD17B13 protein (20 nM FAC in assay buffer). Compound, substrate, co-factor, and HSD17B13 protein were incubated in the dark at room temperature for 2 hours before the addition of 10 µL/well NAD(P)H-Glo detection reagent, prepared from luciferase detection reagent and reductase/reductase substrate, as per manufacturer’s instructions (Promega, G9061). Detection reagent was incubated in the dark for 1 hour at room temperature before plates were read on the Envision plate reader (Perkin Elmer) using a luminescent protocol. Data expressed as relative luminescent units (RLUs) were exported from the plate reader and plotted in GraphPad Prism.

human HSD17B13 [3] = target: T2, human HSD17B13; experiment: Thermal shift assay (static light scattering, Tagg), human HSD17B13; type: binding; conditions: for Tagg, individual measurements: 10.4 µM protein; for thermal stability change: Fig. 6c
Source text: To understand ligand binding, we tested several approaches such as surface plasmon resonance and isothermal calorimetry. […] We next turned to thermal shift assays (TSA) for comparing ligand binding affinities. TSA measures the changes in the thermal denaturation temperature of a protein under different conditions such as the presence compound, changes in buffer conditions, or sequence mutations. There are various readouts including intrinsic fluorescence or light scattering signals. We chose the static light scattering methods to detect the temperatures at which our proteins start to aggregate (Tagg), which are more suitable for membrane proteins that require detergent micelles for stability.
TSA studies were run on the UNit instrument (Unchained Labs, CA, USA). Experiments were run in either 25 mM sodium phosphate pH 7, 150 mM NaCl, 10% glycerol, 1 mM TCEP, 0.05% DDM, + different cofactors (NAD^+, NADH, NADP, NADPH; MilliporeSigma) or 25 mM HEPES pH 7.2, 300 mM NaCl, 0.5 mM TCEP, 0.05% DDM, 10% glycerol, ±500 µM NAD^+, and ±100 µM compound 1 (from 2 mM DMSO stock) or DMSO or 50 mM Hepes pH 7.5, 300 mM NaCl, 0.5 mM TCEP, 0.05% DDM, 500 µM NAD^+, ± 50 µM compounds (from 2 mM stock) or DMSO. Protein aggregation was measured by static light scattering at 266 and 473 nm with a 1 °C/sec ramp rate from 20-80 °C. The data was processed using the UNcle software (Unchained Labs, CA, USA), and temperatures at which the protein started aggregation were recorded as Tagg. Reported Tagg and analysis were based on measurements at 266 nm unless otherwise indicated.

Structure (SMILES): O=C(NC[C@]1(O)CC[C@H](COc2ccccc2F)CC1)c1ccc(O)c(F)c1 [Compound 1]
- activity in cell assay (human HSD17B13 [1]; HEK cells overexpressing HSD17B13): active
- IC50 (human HSD17B13 [1]; HEK cells overexpressing HSD17B13, β-estradiol substrate): 570 ± 120 nM
- signal of inhibited reaction (human HSD17B13 [2]; LTB4 + NAD): 49880 RLU and 52640 RLU
- signal of inhibited reaction (human HSD17B13 [2]; LTB4 + NADP): 49240 RLU and 47920 RLU
- signal of inhibited reaction (human HSD17B13 [2]; β-estradiol + NAD): 48200 RLU and 48320 RLU
- signal of inhibited reaction (human HSD17B13 [2]; β-estradiol + NADP): 47760 RLU and 49720 RLU
- Tagg, individual measurements (human HSD17B13 [3]; 100 µM ligand + 500 µM NAD+): 54.6 °C and 55.1 °C (2×) and 54.2 °C
- Tagg, individual measurements (human HSD17B13 [3]; 100 µM ligand, buffer without NAD+): 41.2 °C and 41.6 °C and 44.6 °C and 45 °C
- deltaTagg (human HSD17B13 [3]; 500 uM NAD, 100 µM ligand, Tagg(compound + NAD+) - Tagg(buffer + NAD+)): 13.1
- thermal stability change (human HSD17B13 [3]; in the absence of cofactor): no significant effect
- thermal stability change (human HSD17B13 [3]; in the presence of NAD+): significant increase in thermal stability
- binding in TSA (human HSD17B13 [3]; Fig. 6d, 500 μM NAD+): bound human HSD17B13 strongly
- Tagg (human HSD17B13 [3]; Fig. 6d, 500 μM NAD+, 50 µM compound): 49.1 ± 2.0 °C
- dTagg (human HSD17B13 [3]; no NAD, 100 µM ligand, vs buffer): 3.033
